Measurements reported in PubChem BioAssay (NCI).
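Protocol summary: plate cells (96-well), add compound at 5 concentrations, incubate 48 h, interpolate endpoints linearly. Definition used: TGI = concentration required for complete inhibition of growth.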

Tests used:
Assay in all cases: NCI anticancer screen, dose series, 48 h
K-562 leukemia = system: K-562 leukemia
CAKI-1 renal = system: CAKI-1 renal
SNB-19 CNS = system: SNB-19 CNS
U251 CNS = system: U251 CNS
SK-MEL-5 melanoma = system: SK-MEL-5 melanoma
OVCAR-5 ovarian = system: OVCAR-5 ovarian
COLO 205 colon = system: COLO 205 colon
SW-620 colon = system: SW-620 colon
TK-10 renal = system: TK-10 renal
M14 melanoma = system: M14 melanoma
ACHN renal = system: ACHN renal
HOP-62 NSCLC = system: HOP-62 NSCLC
HT29 colon = system: HT29 colon
SNB-75 CNS = system: SNB-75 CNS
RXF 393 renal = system: RXF 393 renal
OVCAR-3 ovarian = system: OVCAR-3 ovarian
LOX IMVI melanoma = system: LOX IMVI melanoma
SK-MEL-2 melanoma = system: SK-MEL-2 melanoma
OVCAR-4 ovarian = system: OVCAR-4 ovarian
NCI-H460 lung = system: NCI-H460 lung

Compound | TGI (K-562 leukemia) [µM] | TGI (CAKI-1 renal) [µM] | TGI (SNB-19 CNS) [µM] | TGI (U251 CNS) [µM] | TGI (SK-MEL-5 melanoma) [µM] | TGI (OVCAR-5 ovarian) [µM] | TGI (COLO 205 colon) [µM] | TGI (SW-620 colon) [µM] | TGI (TK-10 renal) [µM] | TGI (M14 melanoma) [µM] | TGI (ACHN renal) [µM] | TGI (HOP-62 NSCLC) [µM] | TGI (HT29 colon) [µM] | TGI (SNB-75 CNS) [µM] | TGI (RXF 393 renal) [µM] | TGI (OVCAR-3 ovarian) [µM] | TGI (LOX IMVI melanoma) [µM] | TGI (SK-MEL-2 melanoma) [µM] | TGI (OVCAR-4 ovarian) [µM] | TGI (NCI-H460 lung) [µM]
CCOC(=O)c1csc(NC(=O)CCCC#N)n1 | > 100 | > 100 | > 100 | > 100 | > 100 | > 100 | > 100 | > 100 | > 100 | > 100 | > 100 | > 100 | > 100 | > 100 | > 100 | > 100 | > 100 | > 100 | > 100 | > 100
c1ccc([P+](Cc2csnn2)(c2ccccc2)c2ccccc2)cc1 |  | > 100 | > 100 | > 100 | > 100 | > 100 | > 100 | > 100 | > 100 | > 100 | > 100 | > 100 | > 100 | > 100 | > 100 | > 100 | > 100 | > 100 | > 100 | > 100
O=C(NN1C(=O)CSC1c1ccc(Cl)c(Cl)c1)c1ccncc1 (stereo unspecified) | > 100 | > 100 | > 100 | > 100 | > 100 | > 100 | > 100 | > 100 | > 100 | > 100 | > 100 |  | > 100 | > 100 | > 100 |  | > 100 | > 100 | > 100 | 
CCc1cc(=O)n(/C(C)=C/c2ccccc2)n1C | > 100 | > 100 | > 100 | > 100 | > 100 | > 100 | > 100 | > 100 | > 100 | > 100 | > 100 | > 100 | > 100 | > 100 | > 100 | > 100 | > 100 | > 100 | > 100 | > 100
COc1ccc(/C(C)=N/NC(=S)N(C)C)c(O)c1 |  | 96.6 | > 100 | > 100 | > 100 | > 100 | 12.4 | > 100 |  | > 100 | > 100 | > 100 | > 100 | > 100 |  | > 100 | 12.4 | > 100 | 9.48 | > 100
O=c1c2cc3c(=O)n(CCc4ccccc4CO)c(=O)c3cc2c(=O)n1CCc1ccccc1CO | > 100 |  | > 100 | > 100 | > 100 |  |  | > 100 | > 100 |  | > 100 |  | > 100 | > 100 | > 100 | > 100 | > 100 | > 100 | > 100 | > 100
Cc1cc(C)nc(NS(=O)(=O)c2ccc(Nc3c4ccccc4nc4c(C(=O)NCCO)cccc34)cc2)n1 | > 100 | 52.7 | > 100 | > 100 | 36.6 | 91.7 | 31.3 | > 100 |  | 65 | > 100 | 71.3 | 38.3 | 21.6 |  | > 100 | 25.5 | 35.7 | 97.5 | > 100
COc1ccc(CN2C(=O)C(=O)N(C)C2=O)c2ccccc12 | > 10 | > 10 | > 10 | > 10 | > 10 | > 10 | > 10 | > 10 | > 10 | > 10 | > 10 | > 10 | > 10 | > 10 | > 10 | > 10 | > 10 | > 10 | > 10 | > 10
